Experimental data taken from patent publication US8410292B2, “Epoxy-guaiane derivatives and treatment of cancer” (The United States of America, as represented by the …, priority 2008, dated 2013).
Where two headings read alike, the source gives them in different places.

Columns and labels:
SF-295 = assay: 2-day cell growth assay, SF-295; type: cell-based, human
Protocol: (§1) The primary endpoints of these assays are the formazan XTT, or alternatively, and in preference, the protein stain sulforhodamine B. All samples are tested in […] 10-fold dilutions with no drug and no-cell controls on each microtiter plate. IC50 values are calculated using SOFTMAX™ software as supplied by the manufacturer of the microplate reader.

UO-31 [1] = assay: 2-day cell growth assay, UO-31; type: cell-based, human
Protocol: as §1

786-0 = assay: NCI 60-cell line protocol, 786-0; type: cell-based, human; details: two days exposure, SRB endpoint
Protocol: (§2) Samples are tested in the standard National Cancer Institute 60-cell line protocol. First, they are tested against all 60 cell lines in a single final concentration of 10 micromolar. Then, they are separately tested in five 10-fold dilutions. The drug exposure is two days, with an SRB endpoint.

A498 = assay: NCI 60-cell line protocol, A498; type: cell-based, human; details: two days exposure, SRB endpoint
Protocol: as §2

ACHN = assay: NCI 60-cell line protocol, ACHN; type: cell-based, human; details: two days exposure, SRB endpoint
Protocol: as §2

CAKI-1 = assay: NCI 60-cell line protocol, CAKI-1; type: cell-based, human; details: two days exposure, SRB endpoint
Protocol: as §2

RXF-393 = assay: NCI 60-cell line protocol, RXF-393; type: cell-based, human; details: two days exposure, SRB endpoint
Protocol: as §2

SN12C = assay: NCI 60-cell line protocol, SN12C; type: cell-based, human; details: two days exposure, SRB endpoint
Protocol: as §2

TK-10 = assay: NCI 60-cell line protocol, TK-10; type: cell-based, human; details: two days exposure, SRB endpoint
Protocol: as §2

renal cancer cell lines = assay: NCI 60-cell line protocol, summary over renal lines; type: cell-based, human
Protocol: as §2

all 60 cell lines = assay: NCI 60-cell line protocol, all 60 lines; type: cell-based, human; details: mean over all 60 cell lines, read-out: All 60 mean GI-50
Protocol: as §2

UO-31 [2] = assay: NCI 60-cell line protocol, UO-31; type: cell-based, human; details: two days exposure, SRB endpoint
Protocol: as §2

[3] = system: renal cancer cell line A498; assay: 2-cell assay; type: cell-based
Protocol: A sample ([…]) of englerin B was stirred in pyridine (0.25 mL) and acetic anhydride (0.25 mL) overnight at room temperature. The solvents were evaporated under vacuum and the product extracted in dichloromethane. The crude product was purified on pTLC (Si gel 60 F254; 2% MeOH/DCM) to give englerin B monoacetate (2.0 mg, 95%).

[4] = insensitive CNS tumor line, read-out: SF-295 IC50
[5] = 2-day cell growth assay, sensitive renal line; read-out: UO-31 IC50
[6] = ratio of IC50 SF-295 to IC50 UO-31
[7] = geometric mean over renal cell lines, read-out: Geometric Mean GI50
[8] = mean over renal cell lines, read-out: Mean GI50
[9] = median over renal cell lines, read-out: Median GI50
[10] = Homo sapiens, SF-295, 48 h, insensitive CNS tumor line, read-out: SF-295 IC50
[11] = Homo sapiens, UO-31, 48 h, 2-day cell growth assay, sensitive renal line; read-out: UO-31 IC50

Compound | IC50 (SF-295; [4]) | IC50 (UO-31 [1]; [5]) | Selectivity SF-295/UO-31 (UO-31 [1]; [6]) | GI50 (786-0) | GI50 (A498) | GI50 (ACHN) | GI50 (CAKI-1) | GI50 (RXF-393) | GI50 (SN12C) | GI50 (TK-10) | GI50 (renal cancer cell lines; [7]) | GI50 (renal cancer cell lines; [8]) | GI50 (renal cancer cell lines; [9]) | GI50 (all 60 cell lines) | GI50 (UO-31 [2]) | further results
CC1CCC2C1C(OC(=O)C(Cl)C(O)c1ccccc1)C1(C(C)C)CC(OC(=O)CO)C2(C)O1 (single isomer, unassigned) [2′-Chloro,3′-hydroxydihydroenglerin (epimer 4), 2′-Chloro,3′-hydroxydihydroenglerin A (epimer 4)] | 20000 nM | 16000 nM | 1.25 |  |  |  |  |  |  |  |  |  |  |  |  | 
CC1CCC2C1C(OC(=O)C(Cl)C(O)c1ccccc1)C1(C(C)C)CC(OC(=O)CO)C2(C)O1 (single isomer, unassigned) [2′-Chloro,3′-hydroxydihydroenglerin (epimer 3), 2′-Chloro,3′-hydroxydihydroenglerin A (epimer 3)] | 42000 nM | 410 nM | 102 |  |  |  |  |  |  |  |  |  |  |  |  | 
CC1CCC2C1C(OC(=O)C(Cl)C(Cl)c1ccccc1)C1(C(C)C)CC(OC(=O)CO)C2(C)O1 (single isomer, unassigned) [2′,3′-Dichlorodihydroenglerin A (epimer 2)] | 60000 nM | 750 nM | 80 | 12000 nM | 49 nM | 320 nM | 320 nM | 320 nM | 1000 nM | 25000 nM | 720 nM | 5550 nM | 320 nM | 11700 nM |  | 
CC1CCC2C1C(OC(=O)C(Cl)C(O)c1ccccc1)C1(C(C)C)CC(OC(=O)CO)C2(C)O1 (single isomer, unassigned) [2′-Chloro,3′-hydroxydihydroenglerin (epimer 1), 2′-Chloro,3′-hydroxydihydroenglerin A (epimer 1)] |  |  | >104 | 1700 nM | 180 nM | 320 nM | 460 nM |  | 630 nM |  | 700 nM | 2580 nM | 490 nM |  | 250 nM | IC50 (SF-295; read-out: SF-295 IC50, insensitive CNS tumor line): > 100000 nM; IC50 (UO-31 [1]; read-out: UO-31 IC50; 2-day cell growth assay, sensitive renal line): 960 nM; GI50 (RXF-393; Homo sapiens, RXF 393, 48 h): 510 nM; GI50 (TK-10; Homo sapiens, TK-10, 48 h): 17000 nM; GI50 (all 60 cell lines; Homo sapiens, 60 cell): 6900 nM
CCOC(c1ccccc1)C(Cl)C(=O)OC1C2C(C)CCC2C2(C)OC1(C(C)C)CC2OC(=O)CO (stereo not drawn) [2′-Chloro,3′-ethoxydihydroenglerin A] |  |  | 1.94 |  |  |  |  |  |  |  |  |  |  |  |  | IC50 (SF-295; [10]): 35000 nM; IC50 (UO-31 [1]; [11]): 18000 nM
englerin B monoacetate |  |  |  |  |  |  |  |  |  |  |  |  |  |  |  | selectivity against renal cancer cell line A498 [3]: ~400 fold
CC1CCC2C1C(OC(=O)C(Cl)C(O)c1ccccc1)C1(C(C)C)CC(OC(=O)CO)C2(C)O1 (single isomer, unassigned) [2′-Chloro,3′-hydroxydihydroenglerin (epimer 2), 2′-Chloro,3′-hydroxydihydroenglerin A (epimer 2)] | 92000 nM | 8700 nM | 11 | 11000 nM | 660 nM | 1380 nM | 9300 nM | 390 nM | 4700 nM | 27000 nM | 3130 nM | 7070 nM | 3320 nM | 12000 nM | 1900 nM | 
CC1CCC2C1C(OC(=O)C(Cl)C(Cl)c1ccccc1)C1(C(C)C)CC(OC(=O)CO)C2(C)O1 (single isomer, unassigned) [2′,3′-Dichlorodihydroenglerin A (epimer 1)] |  |  | 75 |  | 140 nM | 140 nM |  | 930 nM |  |  |  |  | 680 nM |  |  | IC50 (SF-295; [10]): 90000 nM; IC50 (UO-31 [1]; [11]): 1200 nM; GI50 (786-0; Homo sapiens, 786-0, 48 h): 12000 nM; GI50 (CAKI-1; Homo sapiens, CAKI-1, 48 h): 420 nM; GI50 (SN12C; Homo sapiens, SN12C, 48 h): 1000 nM; GI50 (TK-10; Homo sapiens, TK-10, 48 h): 18000 nM; GI50 (UO-31 [2]; Homo sapiens, UO-31, 48 h): 390 nM; GI50 (renal cancer cell lines; Homo sapiens, 60 cell, geometric mean over renal cell lines, read-out: Geometric Mean GI50): 940 nM; GI50 (renal cancer cell lines; Homo sapiens, 60 cell, mean over renal cell lines, read-out: Mean GI50): 4090 nM; GI50 (all 60 cell lines; Homo sapiens, 60 cell): 8300 nM
CC(C)[C@@]12C[C@@H](OC(=O)CO)[C@@](C)(O1)[C@@H]1CC[C@@H](C)[C@H]1[C@@H]2OC(=O)/C(Cl)=C/c1ccccc1 [2′-Chloroenglerin A] | 72000 nM | 920 nM | 78 | 10000 nM | 28 nM | 41 nM | 35 nM | 19 nM | 560 nM | 21000 nM | 210 nM | 3960 nM | 40 nM | 5600 nM | 35 nM | 
